From patent US12303545B2 (priority 2023, dated 2025)
≈ marks a conversion by molar mass, not a printed value. Where two headings read alike, the source gives them in different places. Numbered stars: 1 amine (or outer) side, 2 acyl side, 3 side chain; on linkers, the order of the positions; unused ones are H or OH. Bridge positions count the residues as written; N and C are the ends. Ends that are not written are not given here. Peptide text beside a SMILES is read from it. X1 = O=C(NC[*:1])NC[*:2]

How the values were obtained:
BCG bacteria [1] = assay: microbe, parasite or virus in culture; conditions: Mycobacterium tuberculosis variant bovis BCG
BCG = type: cell-based, attenuated Mycobacterium bovis; conditions: treated as in Example 5
BCG bacteria [2] = tested on: BCG bacteria
trypsin [3] = conditions: trypsin 5 μg/mL
Experimental: (§1) A 4 mg/mL SAH1 solution and a 10 μg/mL trypsin solution each were prepared with PBS (pH 7.4) as a solvent. 250 μL of the trypsin solution was added to 250 μL of the SAH1 solution, and a reaction was conducted in an ice bath. A sample was collected at different time points after the reaction to determine the decomposition of SAH1 by RP-HPLC. RP-HPLC conditions were as follows: A C18 reversed-phase Bio-Rad analytical column was adopted: 250× 4 mm, a pore size: 30 nm, and a particle size: 7 μm. At 0 min to 40 min, linear gradient elution was conducted with 10% to 90% acetonitrile aqueous solutions, with 0.1% TFA (w/v) in both acetonitrile and water. A flow rate was 1.2 mL/min.
(§2) In addition, with the same method as above, the SAH1 aqueous solution was replaced with a 4 mg/mL BMAP-18 aqueous solution to detect the hydrolysis of BMAP-18 by trypsin.

in vitro = conditions: mouse
Experimental: A positive control well was set. The positive control well was the same as test wells except that the polypeptide SAH1 aqueous solution was replaced with a DMEM complete medium. After the incubation, 10 μL of a CCK-8 reaction solution (Beijing Solarbio) was added to each well, and the plate was further incubated at 37° C. for 2 h. Finally, the absorbance at 450 nm was detected with a microplate reader (Synersymx, Biotek). An OD value of the positive control well was BO, an OD value of a test well in which an antimicrobial peptide was added was B, and B/BO was called an inhibition rate. […] With a concentration of an antimicrobial peptide as an x-coordinate and an inhibition rate as a y-coordinate, a line chart was plotted, and IC50 was obtained through fitting.

trypsin [4] = assay: in vitro; conditions: isolated enzyme trypsin, pH 7.4
Experimental: as §1, §2

**Q.** For CO[C@H]1/C=C/O[C@@]2(C)Oc3c(C)c(O)c4c(O)c(c(/C=N/N5CCN(C)CC5)c(O)c4c3C2=O)NC(=O)/C(C)=C\C=C\[C@H](C)[C@H](O)[C@@H](C)[C@@H](O)[C@@H](C)[C@H](OC(C)=O)[C@@H]1C [Rifampicin], which MIC (BCG bacteria [1]) is on record?
**A.** 400 µM (≈ 329 µg/mL)

**Q.** With CC[C@@H](CO)NCCN[C@@H](CC)CO [Ethambutol] as the compound, how does the MIC (BCG bacteria [1]) read?
**A.** 800 µM (≈ 163 µg/mL)

**Q.** With CC(C)CC(NC(=O)C(CCCCN)NC(=O)C(CCCCN)NC(=O)C(Cc1ccccc1)NC(=O)C(CC(C)C)NC(=O)C(CCCCN)NC(=O)C(CCCCN)NC(=O)C(Cc1ccccc1)NC(=O)C(CCCCN)NC(=O)C1CSCNC(=O)NCSCC(NC(=O)C(Cc2ccccc2)NC(=O)C(CCCNC(=N)N)NC(=O)CN)C(=O)NC(CCCNC(=N)N)C(=O)NC(Cc2ccccc2)C(=O)NC(CCCNC(=N)N)C(=O)N1)C(=O)NC(CO)C(=O)O (stereo not drawn) [SAH1] (H-GRFCRFRCKFKKLFKKLS-OH; linker 4-8 via X1; configuration not given here) as the compound, how does the “impact on cell membrane and intracellular structure of BCG (TEM)” value (BCG) read?
**A.** largely missed, resulting in cavities and bacterial death

**Q.** And the MIC (BCG bacteria [2]; BCG bacteria, 37° C. for 7 d, then resazurin 2 d, 7H9 medium)?
**A.** 12.5 µM (≈ 29.7 µg/mL)

**Q.** What about the “Peak area (RP-HPLC)” value (trypsin [3]; reaction time 0 min) of the same compound?
**A.** 274.44

**Q.** And the Polypeptide residue (trypsin [3]; reaction time 0 min)?
**A.** 100%

**Q.** And the “Peak area (RP-HPLC)” value (trypsin [3]; reaction time 15 min)?
**A.** 185.49

**Q.** And the Polypeptide residue (trypsin [3]; reaction time 15 min)?
**A.** 67.59%

**Q.** And the “Peak area (RP-HPLC)” value (trypsin [3]; reaction time 30 min)?
**A.** 125.94

**Q.** And the Polypeptide residue (trypsin [3]; reaction time 30 min)?
**A.** 45.89%

**Q.** And the “Peak area (RP-HPLC)” value (trypsin [3]; reaction time 60 min)?
**A.** 82.92

**Q.** And the Polypeptide residue (trypsin [3]; reaction time 60 min)?
**A.** 30.21%

**Q.** What about the IC50 at 24 h (in vitro) of the same compound?
**A.** 300 µM

**Q.** What about the remaining at 0.25 h, 2 mg/mL (trypsin [4]) of the same compound?
**A.** 67.6%

**Q.** And the remaining at 1 h, 2 mg/mL (trypsin [4])?
**A.** 30.2%

**Q.** With NNC(=O)c1ccncc1 [Isoniazid] as the compound, how does the MIC (BCG bacteria [1]) read?
**A.** 800 µM (≈ 110 µg/mL)

**Q.** What does the source list for “GRFKRFRKKFKKLFKKLS-OH [BMAP-18, G-R-F-K-R-F-R-K-K-F-K-K-L-F-K-K-L-S-OH]”?
**A.** MIC (BCG bacteria [2]): 300 µM; antibacterial ability relative to SAH1 (BCG bacteria [2]): one twenty-fourth; Peak area (RP-HPLC) (trypsin [3]; reaction time 0 min): 254.43; Polypeptide residue (trypsin [3]; reaction time 0 min): 100%; Peak area (RP-HPLC) (trypsin [3]; reaction time 15 min): 45.20; Polypeptide residue (trypsin [3]; reaction time 15 min): 17.76%; Peak area (RP-HPLC) (trypsin [3]; reaction time 30 min): 0.02; Polypeptide residue (trypsin [3]; reaction time 30 min): almost completely hydrolyzed; IC50 at 24 h (in vitro): 150 µM; remaining at 0.25 h, 2 mg/mL (trypsin [4]): 17.8%; remaining at 0.5 h, 2 mg/mL (trypsin [4]): 0.01%
